{"source": "patent US5610140A", "about": "“Bradykinin receptor antagonists with neurokinin receptor blocking activity” (priority 1994, dated 1997)", "key": {"[1]": {"assay": "In vitro stability in porcine kidney cortical membranes", "format": "in vitro ADME", "conditions": "Pig Kidney membrane preparation diluted 1:10 with PBS", "experimental": "(§1) Plasma samples were prepared by collection of whole blood from healthy male and female human volunteers or guinea pigs. Samples were collected into culture tubes containing sodium heparin, and were then spun at 4° C. at 2000 rpm for ten minutes. Supernatant fractions were removed by aspiration and stored in vials at -20° C. Rat or porcine lung and kidney cortical membranes were prepared using differential centrifugation. Membrane preparations were stored at -20° C. The test compound was diluted to 1 mM concentration in PBS (0.0132 M phosphate, 0.1454 M NaCl, pH 7.2). Ten microliters of this working solution were delivered into a series of Eppendorf tubes, followed by human or guinea pig plasma (90 uL) or PBS as a control blank, and incubated for various time periods. […] Supernatant fractions were removed, filtered through 0.22 uM filters (Millipore) and analyzed by HPLC (C18, 12-80% acetonitrile in water, both containing 0.1% trifluoroacetic acid, monitoring at 214 nm.\n(§2) Porcine kidney preparations were diluted 1:10 with PBS; rat kidney preparations were diluted 1:100 with PBS. […] At various time points the reactions were quenched by the addition of 100 uL of ethanol, centrifuged and analyzed by HPLC as described above. The half-life for the disappearance of the HPLC peak was determined using the computer program ENZFIT (Elsevier). […]"}, "[2]": {"assay": "In vitro stability in rat kidney cortical membranes", "format": "in vitro ADME", "conditions": "Rat Kidney membrane preparation diluted 1:100 with PBS", "experimental": "as §1, §2"}, "[3]": {"assay": "In vitro stability in human plasma", "format": "in vitro ADME", "experimental": "as §1, §2"}, "[4]": {"molecular_target": "T1, Neurokinin 1 (NK1) receptor (Cavia porcellus, UniProt P30547)", "T1 sequence (P30547 whole entry)": "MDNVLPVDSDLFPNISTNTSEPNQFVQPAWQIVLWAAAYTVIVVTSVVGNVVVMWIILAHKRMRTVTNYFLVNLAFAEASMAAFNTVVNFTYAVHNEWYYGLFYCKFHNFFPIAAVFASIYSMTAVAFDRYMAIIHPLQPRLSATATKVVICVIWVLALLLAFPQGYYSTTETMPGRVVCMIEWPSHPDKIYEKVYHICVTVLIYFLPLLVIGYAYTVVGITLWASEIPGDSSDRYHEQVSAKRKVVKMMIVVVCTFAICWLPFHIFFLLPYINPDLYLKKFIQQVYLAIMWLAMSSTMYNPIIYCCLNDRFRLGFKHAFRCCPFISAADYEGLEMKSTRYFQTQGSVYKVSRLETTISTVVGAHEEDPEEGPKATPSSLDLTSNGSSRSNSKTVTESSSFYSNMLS", "conditions": "for NK1 pA2: agonist substance P-O-methyl ester"}, "[5]": {"molecular_target": "T1, Neurokinin 1 (NK1) receptor", "assay": "cell-based"}, "[6]": {"assay": "Water solubility", "format": "physicochemical", "conditions": "in the absence of organic co-solvents"}, "[7]": {"molecular_target": "NK1 receptors (Homo sapiens, UniProt P25103)", "sequence (P25103 whole entry)": "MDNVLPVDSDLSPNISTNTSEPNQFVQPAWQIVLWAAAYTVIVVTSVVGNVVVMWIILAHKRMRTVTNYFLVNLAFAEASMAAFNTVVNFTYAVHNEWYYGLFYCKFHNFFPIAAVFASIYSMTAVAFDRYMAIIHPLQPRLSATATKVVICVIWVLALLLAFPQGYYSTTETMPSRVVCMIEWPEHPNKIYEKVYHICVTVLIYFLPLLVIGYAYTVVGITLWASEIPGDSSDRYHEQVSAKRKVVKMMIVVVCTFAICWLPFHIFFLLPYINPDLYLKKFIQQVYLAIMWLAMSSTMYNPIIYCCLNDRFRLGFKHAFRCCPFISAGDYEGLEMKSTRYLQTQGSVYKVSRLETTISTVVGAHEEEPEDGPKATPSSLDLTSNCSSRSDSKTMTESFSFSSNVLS", "conditions": "more potent than FK888; cited from earlier work"}, "[8]": {"molecular_target": "T2, Bradykinin 2 (BK2) receptor (Rattus norvegicus, UniProt P25023)", "T2 sequence (P25023 1-396)": "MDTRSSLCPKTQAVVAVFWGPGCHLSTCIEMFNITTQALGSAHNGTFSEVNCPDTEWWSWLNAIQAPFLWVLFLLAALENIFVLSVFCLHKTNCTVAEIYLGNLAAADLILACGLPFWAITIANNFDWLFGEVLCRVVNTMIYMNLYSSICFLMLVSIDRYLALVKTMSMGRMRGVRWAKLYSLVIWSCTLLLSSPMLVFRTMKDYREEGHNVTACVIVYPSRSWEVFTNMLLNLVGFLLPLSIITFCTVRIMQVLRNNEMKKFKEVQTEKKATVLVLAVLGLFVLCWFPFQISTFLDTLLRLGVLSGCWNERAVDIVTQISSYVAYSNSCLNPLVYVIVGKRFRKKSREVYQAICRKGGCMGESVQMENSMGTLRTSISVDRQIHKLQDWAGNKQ", "assay": "cell-based"}, "[9]": {"molecular_target": "T2, Bradykinin 2 (BK2) receptor"}, "[10]": {"conditions": "as reported in the literature; cited from earlier work"}, "[11]": {"molecular_target": "T3, isolated guinea pig lung membrane (Cavia porcellus, UniProt P30547)", "T3 construct": "host or cells: guinea pig lung membrane", "T3 sequence (P30547 whole entry)": "as the sequence (P30547 whole entry) above", "conditions": "read-out: binding constant; cited from earlier work"}, "[12]": {"conditions": "cited from earlier work"}, "[13]": {"conditions": "guinea pig ileum, recovery of agonist response after wash-off"}}, "note": "“Also recorded” adds a separate entry of the source. Like-named read-outs stand apart in the source and are kept apart here. Square brackets hold non-standard residues; d marks the D form. Peptide text beside a SMILES is read from it. * marks the point of attachment. X5 = C[C@@H](O)[C@H](NC(=O)CCCN1C(=O)CC(*)C1=O)C(=O)N[C@H](Cc1cn(C=O)c2ccccc12)C(=O)N[C@@H](Cc1ccccc1)C(=O)N(C)Cc1ccccc1; Hyp = O=C(O)[C@@H]1C[C@@H](O)CN1", "data": [{"smiles": "NC(N)=NCCC[C@H](NC(=O)[C@H](Cc1ccccc1)NC(=O)[C@@H]1CCCN1C(=O)[C@H](CO)NC(=O)[C@H](Cc1ccccc1)NC(=O)CNC(=O)[C@@H]1CCCN1C(=O)[C@@H]1CCCN1C(=O)[C@@H](N)CCCN=C(N)N)C(=O)O", "note": "[Bradykinin] (H-RPPGFSPFR-OH)", "values": [{"measurement": "Half-life", "setting": "[1]", "value": 3, "unit": "min"}, {"measurement": "Half-life", "setting": "[2]", "value": 7.8, "unit": "min"}, {"measurement": "Half-life", "setting": "[3]", "value": 27, "unit": "min"}]}, {"smiles": "CC(C)C[C@H](NC(=O)[C@@H](Cc1ccccc1)NC(=O)[C@H](CSC1CC(=O)N(CCCCCCN2C(=O)CC(SC[C@H](NC(=O)[C@H](Cc3ccccc3)NC(=O)CNC(=O)[C@@H]3C[C@@H](O)CN3C(=O)[C@@H]3CCCN3C(=O)[C@H](CCCNC(=N)N)NC(=O)[C@H](N)CCCNC(=N)N)C(=O)N[C@H](Cc3ccccc3)C(=O)N[C@@H](CC(C)C)C(=O)N[C@@H](CCCNC(=N)N)C(=O)O)C2=O)C1=O)NC(=O)[C@H](Cc1ccccc1)NC(=O)CNC(=O)[C@@H]1C[C@@H](O)CN1C(=O)[C@@H]1CCCN1C(=O)[C@H](CCCNC(=N)N)NC(=O)[C@H](N)CCCNC(=N)N)C(=O)N[C@@H](CCCNC(=N)N)C(=O)O", "note": "(some centres unmarked) [CP-0127] (HELM PEPTIDE1{[dR].R.P.[Hyp].G.F.C.[dF].L.R}|PEPTIDE2{[dR].R.P.[Hyp].G.F.C.[dF].L.R}|CHEM1{[O=C1CC([*:1])C(=O)N1CCCCCCN1C(=O)CC([*:2])C1=O]}$PEPTIDE1,CHEM1,7:R3-1:R1|PEPTIDE2,CHEM1,7:R3-1:R2$$$V2.0)", "values": [{"measurement": "Half-life", "setting": "[1]", "value": "> 360", "unit": "min"}, {"measurement": "Half-life", "setting": "[2]", "value": 39.6, "unit": "min"}, {"measurement": "Half-life", "setting": "[3]", "value": 165, "unit": "min"}]}, {"smiles": "C[C@@H](O)[C@H](NC(=O)CCCCCN1C(=O)CC(SCCO)C1=O)C(=O)N[C@H](Cc1cn(C=O)c2ccccc12)C(=O)N[C@@H](Cc1ccccc1)C(=O)N(C)Cc1ccccc1", "note": "(some centres unmarked) [CP-0528]", "values": [{"measurement": "NK1 % recovery (wash-off)", "setting": "[4]", "value": 80, "unit": "%"}, {"measurement": "Kb", "setting": "[5]", "value": 316, "unit": "nM"}]}, {"smiles": "C[C@@H](O)[C@H](NC(=O)CCCN1C(=O)CC(SCCO)C1=O)C(=O)N[C@H](Cc1cn(C=O)c2ccccc12)C(=O)N[C@@H](Cc1ccccc1)C(=O)N(C)Cc1ccccc1", "note": "(some centres unmarked) [CP-0529]", "values": [{"measurement": "NK1 % recovery (wash-off)", "setting": "[4]", "value": 55, "unit": "%"}, {"measurement": "Kb", "setting": "[5]", "value": 126, "unit": "nM"}]}, {"smiles": "CN(Cc1ccccc1)C(=O)[C@H](Cc1ccccc1)NC(=O)[C@H](CCCCN)NC(=O)c1c[nH]c2ccccc12", "note": "[CP-0533]", "values": [{"measurement": "NK1 pA2", "setting": "[4]; guinea pig ileum", "value": 6.3}, {"measurement": "NK1 % recovery (wash-off)", "setting": "[4]; [13]", "value": 73, "unit": "%"}, {"measurement": "water solubility", "setting": "[6]", "value": "poor solubility in water; also recorded: minimal water solubility"}]}, {"smiles": "CN(Cc1ccccc1)C(=O)[C@H](Cc1ccc2ccccc2c1)NC(=O)[C@H](CCCCN)NC(=O)c1c[nH]c2ccccc12", "note": "[CP-0535]", "values": [{"measurement": "NK1 pA2", "setting": "[4]; guinea pig ileum", "value": 7.5}, {"measurement": "NK1 % recovery (wash-off)", "setting": "[4]; [13]", "value": 41, "unit": "%"}, {"measurement": "water solubility", "setting": "[6]", "value": "poor water solubility"}]}, {"smiles": "COc1ccccc1CN[C@H]1CCCN[C@H]1c1ccccc1", "note": "[CP-99994]", "values": [{"measurement": "potency relative to FK888 in binding studies", "setting": "[7]", "value": 10, "unit": "times"}]}, {"smiles": "CC(C)C[C@H](NC(=O)[C@@H](Cc1ccccc1)NC(=O)[C@H](CSC1CC(=O)N(CCCC(=O)N[C@H](C(=O)N[C@H](Cc2cn(C=O)c3ccccc23)C(=O)N[C@@H](Cc2ccccc2)C(=O)N(C)Cc2ccccc2)[C@@H](C)O)C1=O)NC(=O)[C@H](Cc1ccccc1)NC(=O)CNC(=O)[C@@H]1C[C@@H](O)CN1C(=O)[C@@H]1CCCN1C(=O)[C@H](CCCNC(=N)N)NC(=O)[C@H](N)CCCNC(=N)N)C(=O)N[C@@H](CCCNC(=N)N)C(=O)O", "note": "(some centres unmarked) [Compound 2] (H-[dR]RP[Hyp]GFC(X5)[dF]LR-OH)", "values": [{"measurement": "NK1 % recovery (wash-off)", "setting": "[4]", "value": 48, "unit": "%"}, {"measurement": "Kb", "setting": "[5]", "value": 126, "unit": "nM"}, {"measurement": "Kb", "setting": "[8]", "value": 6.31, "unit": "nM"}, {"measurement": "BK2 % Recovery (wash-off)", "setting": "[9]", "value": 20, "unit": "%"}]}, {"smiles": "CN(Cc1ccccc1)C(=O)[C@H](Cc1ccc2ccccc2c1)NC(=O)[C@@H]1C[C@@H](O)CN1C(=O)c1cn(C)c2ccccc12", "note": "[FK888]", "values": [{"measurement": "water solubility", "setting": "[10]", "value": "poor water solubility"}]}, {"smiles": "CC(=O)N[C@H](C(=O)N[C@H](Cc1c[nH]c2ccccc12)C(=O)N[C@@H](Cc1ccccc1)C(=O)N(C)Cc1ccccc1)[C@@H](C)O", "note": "[FR113680, Ac-Thr-D-Trp-Phe-N(CH3)Bn, reference compound]", "values": [{"measurement": "Ki", "setting": "[11]", "value": 5.8, "unit": "nM"}, {"measurement": "NK1 % recovery (wash-off)", "setting": "[4]", "value": 53, "unit": "%"}, {"measurement": "Kb", "setting": "[5]", "value": 100, "unit": "nM"}, {"measurement": "in vivo stability", "setting": "[12]", "value": "moderate in vivo stability"}]}]}
